Measured values as given in US20260022143A1, “Cyclic Peptide Inhibitors of IL-23” (JANSSEN PHARMACEUTICA NV, priority 2022, published 2026).
Each block holds one molecule with its values, some of them ahead of it. Starred links: 1 amine or outer side, 2 acyl side, 3 side chain; linkers in the order of their positions; H or OH if unused. Positions of bridges follow the written chain, without caps; N, C: chain ends. Non-standard residues stand in square brackets, D forms with d. Residues, ends and D or L forms follow the SMILES beside them. ξ: configuration not given here. *: point of attachment. Me3N+(CH2)2O(CH2)2O(CH2)2CO = C[N+](C)(C)CCOCCOCCC(=O)*; CH2CH2OCH2CH2OCH2CH2NMe3+ = C[N+](C)(C)CCOCCOCC*; Trp(7-Me) = Cc1cccc2c(C[C@H](N)C(=O)O)c[nH]c12; Abu(4-yl) = O=C([C@H](CC[*:3])N[*:1])[*:2]; dLys(Me3) = C[N+](C)(C)CCCC[C@@H](N)C(=O)O; 2Nal = N[C@@H](Cc1ccc2ccccc2c1)C(=O)O; AEF = NCCOc1ccc(C[C@H](N)C(=O)O)cc1; 3Pal = N[C@@H](Cc1cccnc1)C(=O)O; Cit = NC(=O)NCCC[C@H](N)C(=O)O; Lys(Me) = CNCCCC[C@H](N)C(=O)O; Pen = CC(C)(S)[C@H](N)C(=O)O; ξLys(Me) = CNCCCCC(N)C(=O)O; αMeC = C[C@](N)(CS)C(=O)O; Thp = NC1(C(=O)O)CCOCC1; X3 = C[N+](C)(C)CCCCC*; Sar = CNCC(=O)O

What was measured:
IL-23R = biological target: T1, IL-23R (Homo sapiens, UniProt Q5VWK5); experiment: IL23R Reporter Assay; assay type: cell-based; details: HEK293 cells containing IL-23R, IL-12RP1 and STAT-inducible firefly luciferase reporter; 10 ng/mL IL-23 (EC90); 5 h at 37° C.; read-out: IL23R Reporter Assay
T1 construct: host or cells: HEK293
T1 sequence (Q5VWK5 24-629): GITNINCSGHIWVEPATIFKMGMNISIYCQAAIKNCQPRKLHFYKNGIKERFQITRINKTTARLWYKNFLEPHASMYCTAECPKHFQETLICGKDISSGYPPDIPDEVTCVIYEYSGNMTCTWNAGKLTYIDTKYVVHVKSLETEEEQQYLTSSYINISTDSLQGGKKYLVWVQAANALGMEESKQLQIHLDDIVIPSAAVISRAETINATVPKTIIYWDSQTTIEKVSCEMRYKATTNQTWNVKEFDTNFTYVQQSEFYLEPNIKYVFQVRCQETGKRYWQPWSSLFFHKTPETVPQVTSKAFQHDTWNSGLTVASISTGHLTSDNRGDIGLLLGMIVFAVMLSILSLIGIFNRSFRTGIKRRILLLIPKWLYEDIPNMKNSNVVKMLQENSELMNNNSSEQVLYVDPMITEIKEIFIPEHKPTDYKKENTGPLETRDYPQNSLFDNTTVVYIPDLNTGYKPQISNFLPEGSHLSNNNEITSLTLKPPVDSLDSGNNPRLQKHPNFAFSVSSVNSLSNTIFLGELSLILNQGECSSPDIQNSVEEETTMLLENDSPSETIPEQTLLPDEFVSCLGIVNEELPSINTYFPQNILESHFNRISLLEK

[1] = Exposed Polar Surface Area (EPSA); assay type: physicochemical; details: SFC on Chirex 3014 column; sample 1 mM DMSO stock; read-out: EPSA
In short: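 Compounds, as 1 mM DMSO stock, were injected in duplicate onto an SFC Chirex 3014 column at 35 °C and eluted with a CO2/methanol (20 mM ammonium formate) gradient. EPSA values in Å^2 were derived from retention times using a linear fit to eight calibration standards, reinjected every 20 compounds.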

Structure (SMILES): CC(=O)N(C)CCCC[C@@H]1NC(=O)[C@H](Cc2c[nH]c3c(C)cccc23)NC(=O)[C@H]([C@@H](C)O)NC(=O)[C@H](CC(=O)N(C)C)NC(=O)[C@@H](NC(=O)CCOCCOCC[N+](C)(C)C)C(C)(C)SSC(C)(C)[C@@H](C(=O)N[C@@H](Cc2ccc(OCCCCC[N+](C)(C)C)cc2)C(=O)N[C@@H](Cc2ccc3ccccc3c2)C(=O)NC2(C(=O)N[C@@H](CCCNC(N)=O)C(=O)N[C@@H](CC(N)=O)C(=O)N[C@@H](Cc3cccnc3)C(=O)N(C)CC(=O)N(C)C)CCOCC2)NC1=O [compound 327, cPEG3aCO-Pen(3)-N(N(Me)2)-T-7MeW-K(NMeAc)-Pen(3)-TMAPF-2Nal-THP-Cit-N-3Pya-Sar-CON(Me)2] ({Me3N+(CH2)2O(CH2)2O(CH2)2CO}-[Pen]D(NMe2)T[Trp(7-Me)][Lys(Me)](Ac)[Pen]Y(X3)[2Nal][Thp][Cit]N[3Pal][Sar]-NMe2; disulfide 1-6)
IC50 (IL-23R): 1.2 nM
EPSA [1]: 157 A^2

Structure (SMILES): CC(=O)N[C@@H](COCCOCC[N+](C)(C)C)C(=O)N[C@@H]1C(=O)N[C@@H](CC(=O)N(C)C)C(=O)N[C@@H]([C@@H](C)O)C(=O)N[C@@H](Cc2c[nH]c3c(C)cccc23)C(=O)N[C@@H](CCCCN(C)C(C)=O)C(=O)N[C@H](C(=O)N[C@@H](Cc2ccc(OCCOCCOCC[N+](C)(C)C)cc2)C(=O)N[C@@H](Cc2ccc3ccccc3c2)C(=O)NC2(C(=O)N[C@@H](CCCCN(C)C(C)=O)C(=O)N[C@@H](CC(N)=O)C(=O)N[C@@H](Cc3cccnc3)C(=O)N(C)CC(=O)N(C)C)CCOCC2)C(C)(C)SSC1(C)C (relative stereo) [compound 318, MeCO-APEG2Ser(S*)-Pen(3)-N(N(Me)2)-T-7MeW-K(NMeAc)-Pen(3)-APEG3F-2Nal-THP-K(NMeAc)-N-3Pya-Sar-CON(Me)2]
IC50 (IL-23R): 0.89 nM
EPSA [1]: 151 A^2

Structure (SMILES): CC(=O)NCCCC[C@@H]1NC(=O)[C@H](Cc2c[nH]c3ccccc23)NC(=O)[C@H]([C@@H](C)O)NC(=O)[C@H](CC(N)=O)NC(=O)[C@@H](NC(=O)[C@@H](CCCC[N+](C)(C)C)NC(C)=O)CCSC[C@@](C)(C(=O)N[C@@H](Cc2ccc(OCCCCC[N+](C)(C)C)cc2)C(=O)N[C@@H](Cc2ccc3ccccc3c2)C(=O)NC2(C(=O)N[C@@H](CCC(=O)O)C(=O)N[C@@H](CC(N)=O)C(=O)N[C@@H](Cc3cccnc3)C(=O)N(C)CC(N)=O)CCOCC2)NC1=O [compound 567, MeCO-k(Me)3-Abu(1)-N-T-W-K(Ac)-aMeC(1)-TMAPF-2Nal-THP-E-N-3Pya-Sar-CONH2] (Ac-[dLys(Me3)][Abu(4-yl)]NTWK(Ac)[αMeC]Y(X3)[2Nal][Thp]EN[3Pal][Sar]-NH2; thioether 2-7)
IC50 (IL-23R): 3.1 nM
EPSA [1]: 172 A^2

Structure (SMILES): CC(=O)NCCCC[C@@H]1NC(=O)[C@H](Cc2c[nH]c3c(C)cccc23)NC(=O)[C@H]([C@@H](C)O)NC(=O)[C@H](CC(N)=O)NC(=O)[C@@H](NC(C)=O)C(C)(C)SSC(C)(C)[C@@H](C(=O)N[C@@H](Cc2ccc(OCCN)cc2)C(=O)N[C@@H](Cc2ccc3ccccc3c2)C(=O)NC2(C(=O)N[C@@H](CCCCNC(C)=O)C(=O)N[C@@H](CC(N)=O)C(=O)N(C)C)CCOCC2)NC1=O [compound 153] (Ac-[Pen]NT[Trp(7-Me)]K(Ac)[Pen][AEF][2Nal][Thp]K(Ac)N-NMe2; disulfide 1-6 (inferred))
IC50 (IL-23R): 270 nM
EPSA [1]: 171 A^2

Structure (SMILES): CC(=O)N(C)CCCC[C@H](NC(=O)C1(NC(=O)[C@H](Cc2ccc3ccccc3c2)NC(=O)[C@H](Cc2ccc(OCCCCC[N+](C)(C)C)cc2)NC(=O)[C@H]2NC(=O)[C@H](CCCNC(N)=O)NC(=O)[C@H](Cc3c[nH]c4c(C)cccc34)NC(=O)[C@H]([C@@H](C)O)NC(=O)[C@H](CC(=O)N(C)C)NC(=O)[C@@H](NC(=O)CCOCCOCC[N+](C)(C)C)C(C)(C)SSC2(C)C)CCOCC1)C(=O)N[C@@H](CC(N)=O)C(=O)N[C@@H](Cc1cccnc1)C(=O)N(C)CC(=O)N(C)C [compound 346, cPEG3aCO-Pen(3)-N(N(Me)2)-T-7MeW-Cit-Pen(3)-TMAPF-2Nal-THP-K(NMeAc)-N-3Pya-Sar-CON(Me)2] ({Me3N+(CH2)2O(CH2)2O(CH2)2CO}-[Pen]D(NMe2)T[Trp(7-Me)][Cit][Pen]Y(X3)[2Nal][Thp][Lys(Me)](Ac)N[3Pal][Sar]-NMe2; disulfide 1-6)
IC50 (IL-23R): 1.8 nM
EPSA [1]: 158 A^2

More lines, in order of falling IC50 (IL-23R), values ahead:

IC50 (IL-23R): 1540 nM
EPSA [1]: 153 A^2
Structure (SMILES): CC(=O)N(C)CCCCC(NC(=O)C1(NC(=O)[C@H](Cc2ccc3ccccc3c2)NC(=O)[C@H](Cc2ccc(OCCOCCOCC[N+](C)(C)C)cc2)NC(=O)[C@@H]2CCSC[C@H](NC(=O)CCOCCOCC[N+](C)(C)C)C(=O)N[C@@H](CC(=O)N(C)C)C(=O)N[C@@H]([C@@H](C)O)C(=O)N[C@@H](Cc3c[nH]c4c(C)cccc34)C(=O)N[C@@H](CCCCN(C)C(C)=O)C(=O)N2)CCOCC1)C(=O)N[C@@H](CC(N)=O)C(=O)N[C@@H](Cc1ccccc1)C(=O)N(C)CC(=O)N(C)C (some centres unmarked) [compound 475, cPEG3aCO-Abu(1)-N(N(Me)2)-T-7MeW-K(NMeAc)-C(1)-APEG3F-2Nal-THP-K(NMeAc)-N-F-Sar-CON(Me)2] ({Me3N+(CH2)2O(CH2)2O(CH2)2CO}-CD(NMe2)T[Trp(7-Me)][Lys(Me)](Ac)[Abu(4-yl)]Y(CH2CH2OCH2CH2OCH2CH2NMe3+)[2Nal][Thp][ξLys(Me)](Ac)NF[Sar]-NMe2; thioether 1-6)

IC50 (IL-23R): 110 nM
EPSA [1]: 148 A^2
Structure (SMILES): CC(=O)N[C@@H]1C(=O)N[C@@H](CC(=O)N(C)C)C(=O)N[C@@H]([C@@H](C)O)C(=O)N[C@@H](Cc2c[nH]c3c(C)cccc23)C(=O)N[C@H](COCCOCC[N+](C)(C)C)C(=O)N[C@H](C(=O)N[C@@H](Cc2ccc(OCCOCCOCC[N+](C)(C)C)cc2)C(=O)N[C@@H](Cc2ccc3ccccc3c2)C(=O)NC2(C(=O)N[C@@H](CCCCN(C)C(C)=O)C(=O)N[C@@H](CC(N)=O)C(=O)N[C@@H](Cc3cccnc3)C(=O)N(C)CC(=O)N(C)C)CCOCC2)C(C)(C)SSC1(C)C (relative stereo) [compound 268, MeCO-Pen(3)-N(N(Me)2)-T-7MeW-APEG2Ser(R*)-Pen(3)-APEG3F-2Nal-THP-K(NMeAc)-N-3Pya-Sar-CON(Me)2]

IC50 (IL-23R): 6.4 nM
EPSA [1]: 159 A^2
Structure (SMILES): CC(=O)N(C)CCCC[C@@H]1NC(=O)[C@H](Cc2c[nH]c3c(C)cccc23)NC(=O)[C@H]([C@@H](C)O)NC(=O)[C@H](CC(=O)N(C)C)NC(=O)[C@@H](NC(=O)CCOCCOCC[N+](C)(C)C)C(C)(C)SSC(C)(C)[C@@H](C(=O)NC(Cc2ccc(OCCN(CCOCC[N+](C)(C)C)CCOCC[N+](C)(C)C)cc2)C(=O)N[C@@H](Cc2ccc3ccccc3c2)C(=O)NC2(C(=O)N[C@@H](CCCCN(C)C(C)=O)C(=O)N[C@@H](CC(N)=O)C(=O)N[C@@H](Cc3cccnc3)C(=O)N(C)CC(=O)N(C)C)CCOCC2)NC1=O (stereo partly drawn) [compound 265, cPEG3aCO-Pen(3)-N(N(Me)2)-T-7MeW-K(NMeAc)-Pen(3)-AEF(BisPEG2a)(RS)-2Nal-THP-K(NMeAc)-N-3Pya-Sar-CON(Me)2]

IC50 (IL-23R): 5.9 nM
EPSA [1]: 163 A^2
Structure (SMILES): CC(=O)NCCCC[C@@H]1NC(=O)[C@H](Cc2c[nH]c3c(C)cccc23)NC(=O)[C@H]([C@@H](C)O)NC(=O)[C@H](CC(N)=O)NC(=O)[C@@H](NC(=O)C(COCCOCC[N+](C)(C)C)NC(C)=O)C(C)(C)SSC(C)(C)[C@@H](C(=O)N[C@@H](Cc2ccc(OCCCCC[N+](C)(C)C)cc2)C(=O)N[C@@H](Cc2ccc3ccccc3c2)C(=O)NC2(C(=O)N[C@@H](CCCCNC(C)=O)C(=O)N[C@@H](CC(N)=O)C(=O)N[C@@H](Cc3cccnc3)C(=O)N(C)CC(N)=O)CCOCC2)NC1=O (mixture of isomers) [compound 556, MeCO-APEG2Ser(RS)-Pen(3)-N-T-7MeW-K(Ac)-Pen(3)-TMAPF-2Nal-THP-K(Ac)-N-3Pya-Sar-CONH2]

IC50 (IL-23R): 1.4 nM
EPSA [1]: 157 A^2
Structure (SMILES): CC(=O)N(C)CCCC[C@H](NC(=O)C1(NC(=O)[C@H](Cc2ccc3ccccc3c2)NC(=O)[C@H](Cc2ccc(OCCCCC[N+](C)(C)C)cc2)NC(=O)[C@H]2NC(=O)[C@H](CCCCNC(=O)CCOCCOCC[N+](C)(C)C)NC(=O)[C@H](Cc3c[nH]c4c(C)cccc34)NC(=O)[C@H]([C@@H](C)O)NC(=O)[C@H](CC(=O)N(C)C)NC(=O)[C@@H](NC(=O)CCOCCOCC[N+](C)(C)C)C(C)(C)SSC2(C)C)CCOCC1)C(=O)N[C@@H](CC(N)=O)C(=O)N[C@@H](Cc1cccnc1)C(=O)N(C)CC(=O)N(C)C [compound 384, cPEG3aCO-Pen(3)-N(N(Me)2)-T-7MeW-K(cPEG3a)-Pen(3)-TMAPF-2Nal-THP-K(NMeAc)-N-3Pya-Sar-CON(Me)2] ({Me3N+(CH2)2O(CH2)2O(CH2)2CO}-[Pen]D(NMe2)T[Trp(7-Me)]K(Me3N+(CH2)2O(CH2)2O(CH2)2CO)[Pen]Y(X3)[2Nal][Thp][Lys(Me)](Ac)N[3Pal][Sar]-NMe2; disulfide 1-6)
